Assay results as given in patent publication US10752588B2 (The Broad Institute, Inc., priority 2014, dated 2020).
Converted amounts (≈) assume the structure as drawn. Where two headings read alike, the source gives them in different places.

Experiments:
human D2R/β-arrestin [1] = molecular target: T1, human D2R/β-arrestin (Homo sapiens (Human), UniProt P14416); test: β-Arrestin agonist assay (PathHunter); format: cell-based; conditions: CHO-K1 cell line expressing human D2R/β-arrestin
How it was run: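 Readout follows addition of Buffer:Emerald II:Galactor-Star reagent (19:5:1) to agonist-treated plates, measured as luminescence or fluorescence.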

human D2R/β-arrestin [2] = molecular target: T1, human D2R/β-arrestin; test: Gi/cAMP agonist assay (Lance Ultra cAMP, Forskolin); format: cell-based; conditions: CHO-K1 cell line expressing human D2R/β-arrestin
How it was run: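 Read-out was Lance Ultra competitive TR-FRET (Eu-cAMP tracer plus ULight-anti-cAMP) following forskolin-induced cAMP production. Before forskolin stimulation, compounds were pin-transferred onto the seeded cells for 10 min at 37 °C.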

Solubility in PBS = format: physicochemical; conditions: aqueous buffer
plasma protein [3] = test: Plasma protein binding, mouse; format: in vitro ADME; conditions: for fraction unbound: plasma, read-out: Plasma Protein Binding % bound
Plasma stability, human = format: in vitro ADME
Plasma stability, rat = format: in vitro ADME
[4] = Microsomal stability, human; format: in vitro ADME
[5] = Microsomal stability, rat; format: in vitro ADME
human D2R/β-arrestin [6] = molecular target: T1, human D2R/β-arrestin; test: cell-based; conditions: β-arrestin Antagonist, CHO-K1 cell line expressing human D2R/β-arrestin; quinpirole used as agonist
Method: (§1) The detection reagents are then added, and the read-out is detected.
(§2) Cells were prepared for assays by growing cultures for up to 2 weeks (from about 6-20 passages). A vial of frozen cells was thawed in a water bath held at 37° C. The cells were then transferred into a 50 ml tube with 10 ml growth media. The vial was rinsed with growth media and the contents transferred to the 50 ml tube. The 50 ml tube was centrifuged at 1200 rpm for 5 minutes at room temperature. […] When the cells reached about 90% confluence (approximately 3 days between passages), the cells were passaged and used for either the agonist or antagonist assays as described below.
(§3) The cells were prepared for β-arrestin assays as described above. The assays were performed using a PathHunter® β-Arrestin Detecting Kit (DiscoveRX). The cells were grown on 225 mm dishes, then washed once with 1×PBS (Cellgro), followed by digestion with 2.5 ml 1× Detachment reagent (DRX 92-0009) for approximately 2 minutes.

human D2R/β-arrestin [7] = molecular target: T1, human D2R/β-arrestin; test: cell-based; conditions: cAMP Antagonist, CHO-K1 cell line expressing human D2R/β-arrestin; quinpirole used as agonist
[8] = Microsomal stability, mouse
D2 = D2 (Homo sapiens (Human), UniProt P14416); test: D2 radioligand binding assay
Chain of D2 (P14416 whole entry): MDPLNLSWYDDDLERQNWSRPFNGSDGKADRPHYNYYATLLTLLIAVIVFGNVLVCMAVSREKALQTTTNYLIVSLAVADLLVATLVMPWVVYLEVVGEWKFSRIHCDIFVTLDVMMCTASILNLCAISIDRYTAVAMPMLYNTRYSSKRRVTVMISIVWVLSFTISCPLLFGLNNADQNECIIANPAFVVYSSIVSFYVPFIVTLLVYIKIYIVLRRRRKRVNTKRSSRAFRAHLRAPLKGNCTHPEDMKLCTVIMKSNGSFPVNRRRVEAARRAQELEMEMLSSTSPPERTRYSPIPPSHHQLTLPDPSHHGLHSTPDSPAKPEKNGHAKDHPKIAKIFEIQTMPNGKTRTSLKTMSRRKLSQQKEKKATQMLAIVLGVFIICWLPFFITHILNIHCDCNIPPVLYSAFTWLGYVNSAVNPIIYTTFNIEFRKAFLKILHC

plasma protein [9] = test: Plasma protein binding, human; format: in vitro ADME; conditions: plasma, read-out: Plasma Protein Binding % bound
plasma protein [10] = test: Plasma protein binding, rat; format: in vitro ADME; conditions: plasma, read-out: Plasma Protein Binding % bound
human D2R/β-arrestin [11] = molecular target: T1, human D2R/β-arrestin; conditions: read-out: β-arrestin Antagonist
Method: as §1, §2, §3

human D2R/β-arrestin [12] = molecular target: T1, human D2R/β-arrestin; conditions: read-out: cAMP Antagonist
[13] = CHO-K1 cell line expressing human D2R/β-arrestin, quinpirole used as agonist

T1 sequence (P14416 whole entry): as above

Row | Structure (SMILES) | EC50 (human D2R/β-arrestin [1]) [µM] | EC50 (human D2R/β-arrestin [2]) [µM] | solubility (Solubility in PBS) [µM] | IC50 (human D2R/β-arrestin [6]) [µM] | IC50 (human D2R/β-arrestin [7]) [µM] | Microsomal Stability: % remaining after 60 minutes [8] | Ki (D2) [µM] | IC50 (human D2R/β-arrestin [12]; [13]) [µM] | IC50 (human D2R/β-arrestin [11]; [13]) [µM] | fraction unbound (plasma protein [3]) | Plasma Stability: % remaining after 5 hours (Plasma stability, human) [%] | Plasma Stability: % remaining after 5 hours (Plasma stability, rat) [%] | Microsomal Stability: % remaining after 60 minutes [4] [%] | Microsomal Stability: % remaining after 60 minutes [5] [%] | Plasma Stability: % remaining after 5 hours (Plasma stability, mouse) | fraction unbound (plasma protein [9]) | fraction unbound (plasma protein [10]) | Plasma Protein Binding % bound (plasma protein [3]) | IC50 (human D2R/β-arrestin [11]) [µM] | IC50 (human D2R/β-arrestin [12]) [µM]
1 | O=C(NC(c1ccc(Cl)cc1)c1ccccn1)C1CCN(CCOc2cccc(C(F)(F)F)c2)CC1 (stereo not drawn) [Compound 7, N-((4-chlorophenyl)(pyridin-2-yl)methyl)-1-(2-(3-(trifluoromethyl)phenoxy)ethyl) piperidine-4-carboxamide] | > 30 | 0.1 to 1 | 0.7 (≈ 0.363 µg/mL) | 0.1 to 1 | 0.1 to 1 | 44% | – | – | – | 0.004 | 91.5 | 93.5 | 87 | 76 | 100% | – | – | – | – | –
2 | O=C(NC(c1ccc2c(c1)OC(F)(F)O2)c1ccccn1)C1CCN(CCOc2ccccc2F)CC1 (single isomer, unassigned) [Compound 94b, N-((2,2-difluorobenzo[d][1,3]dioxol-5-yl)(pyridin-2-yl)methyl)-1-(2-(2-fluorophenoxy)ethyl)piperidine-4-carboxamide] | 0.1 to 1 | < 0.1 | – | > 30 | > 30 | m26% | 0.1 to 1 | – | – | – | – | – | – | – | – | – | – | – | – | –
3 | O=C(NC(c1ccc(Cl)cc1)c1ccc(F)cn1)C1CCN(CCOc2ccccc2F)CC1 (stereo not drawn) [Compound 92, N-((4-chlorophenyl)(5-fluoropyridin-2-yl)methyl)-1-(2-(2-fluorophenoxy)ethyl)piperidine-4-carboxamide] | > 30 | 0.1 to 1 | – | 0.1 to 1 | 0.1 to 1 | m22% | 0.1 to 1 | – | – | – | – | – | – | – | – | – | – | – | – | –
4 | O=C(NC(c1ccc(Cl)cc1)c1ccccn1)C1CCN(CCOc2ccccc2F)CC1 (stereo not drawn) [Compound 3] | > 30 | < 0.1 | 43 (≈ 20.1 µg/mL) | 0.1 to 1 | > 30 | 22% | – | – | – | 0.015 | 92 | 86 | 64 | 44 | 100% | 0.246 | 0.315 | – | – | –
5 | O=C(NC(c1ccc2c(c1)OCO2)c1ccccn1)C1CCN(CCOc2ccccc2F)CC1 (stereo not drawn) [Compound 95, N-(benzo[d][1,3]dioxol-5-yl(pyridin-2-yl)methyl)-1-(2-(2-fluorophenoxy)ethyl) piperidine-4-carboxamide] | > 30 | 0.1 to 1 | – | 0.1 to 1 | 0.1 to 1 | m33% | 0.1 to 1 | – | – | – | – | – | – | – | – | – | – | – | – | –
6 | O=C(NC(c1ccc2c(c1)OC(F)(F)O2)c1ccccn1)C1CCN(CCOc2ccccc2)CC1 (single isomer, unassigned) [Compound 119b] | 0.1 to 1 | < 0.1 | – | – | – | m51% | – | – | – | – | – | – | – | – | m100% | – | – | m97.4% | 1 to 10 | > 30
7 | O=C(NC(c1ccc(Cl)cc1)c1ccccn1)C1CCN(CCOc2ccccc2C(F)(F)F)CC1 (stereo not drawn) [Compound 6] | > 30 | > 30 | 0.7 (≈ 0.363 µg/mL) | < 0.1 | < 0.1 | 22% | 0.1 to 1 | – | – | 0.008 | 99 | 69.3 | 52 | 32 | 98.8% | 0.007 | – | – | – | –
8 | O=C(NC(c1ccc2c(c1)OC(F)(F)O2)c1ccccn1)C1CCN(CCOc2ccccc2F)CC1 (single isomer, unassigned) [Compound 94a, N-((2,2-difluorobenzo[d][1,3]dioxol-5-yl)(pyridin-2-yl)methyl)-1-(2-(2-fluorophenoxy)ethyl)piperidine-4-carboxamide] | > 30 | > 30 | – | 0.1 to 1 | < 0.1 | m2% | 0.1 to 1 | – | – | – | – | – | – | – | – | – | – | – | – | –

Second part, led by results:

Row | EC50 (human D2R/β-arrestin [1]) [µM] | EC50 (human D2R/β-arrestin [2]) [µM] | solubility (Solubility in PBS) [µM] | IC50 (human D2R/β-arrestin [6]) [µM] | IC50 (human D2R/β-arrestin [7]) [µM] | Microsomal Stability: % remaining after 60 minutes [8] | Ki (D2) [µM] | IC50 (human D2R/β-arrestin [12]; [13]) [µM] | IC50 (human D2R/β-arrestin [11]; [13]) [µM] | Structure (SMILES) | fraction unbound (plasma protein [3]) | Plasma Stability: % remaining after 5 hours (Plasma stability, human) [%] | Plasma Stability: % remaining after 5 hours (Plasma stability, rat) [%] | Microsomal Stability: % remaining after 60 minutes [4] [%] | Microsomal Stability: % remaining after 60 minutes [5] [%] | Plasma Stability: % remaining after 5 hours (Plasma stability, mouse) | fraction unbound (plasma protein [9]) | fraction unbound (plasma protein [10]) | Plasma Protein Binding % bound (plasma protein [3]) | IC50 (human D2R/β-arrestin [11]) [µM] | IC50 (human D2R/β-arrestin [12]) [µM]
9 | > 30 | < 0.1 | – | < 0.1 | 1 to 10 | – | < 0.1 | – | – | CN(CC1CCN(CCOc2ccccc2F)CC1)C(c1ccc(Cl)cc1)c1ccccn1 (stereo not drawn) [Compound 72, 1-(4-chlorophenyl)-N-((1-(2-(2-fluorophenoxy)ethyl)piperidin-4-yl)methyl)-N-methyl-1-(pyridin-2-yl)methanamine] | – | – | – | – | – | – | – | – | – | – | –
10 | > 30 | 0.1 to 1 | – | 0.1 to 1 | 0.1 to 1 | m1% | 0.1 to 1 | – | – | COc1cccc(C(c2ccccn2)N(C)CC2CCN(CCOc3ccccc3F)CC2)c1 (single isomer, unassigned) [Compound 77a, N-((1-(2-(2-fluorophenoxy)ethyl)piperidin-4-yl)methyl)-1-(3-methoxyphenyl)-N-methyl-1-(pyridin-2-yl)methanamine] | – | – | – | – | – | – | – | – | – | – | –
11 | 0.1 to 1 | < 0.1 | – | 0.1 to 1 | – | – | 0.1 to 1 | > 30 | – | CC1(C(=O)NC(c2ccc(F)cc2)c2ccccn2)CCN(CCOc2ccccc2)CC1 (single isomer, unassigned) [Compound 69b, N-((4-fluorophenyl)(pyridin-2-yl)methyl)-4-methyl-1-(2-phenoxyethyl)piperidine-4-carboxamide] | – | – | – | – | – | – | – | – | – | – | –
12 | > 30 | 0.1 to 1 | – | < 0.1 | < 0.1 | – | 0.1 to 1 | – | – | Clc1ccc(C(NCC2CCN(CCOc3ccccc3)CC2)c2ccccn2)cc1 (single isomer, unassigned) [Compound 114a, 1-(4-chlorophenyl)-N-((1-(2-phenoxyethyl)piperidin-4-yl)methyl)-1-(pyridin-2-yl)methanamine] | – | – | – | – | – | – | – | – | – | – | –
13 | 1 to 10 | 0.1 to 1 | 1.4 (≈ 0.655 µg/mL) | 0.1 to 1 | > 30 | m0% | 0.1 to 1 | – | – | CN(CC1CCN(CCOc2ccccc2F)CC1)C(c1ccc(Cl)cc1)c1ccccn1 (single isomer, unassigned) [Compound 72a, 1-(4-chlorophenyl)-N-((1-(2-(2-fluorophenoxy)ethyl)piperidin-4-yl)methyl)-N-methyl-1-(pyridin-2-yl)methanamine] | – | – | – | – | – | m100% | – | – | – | – | –
14 | 1 to 10 | 0.1 to 1 | – | 0.1 to 1 | > 30 | m18% | < 0.1 | – | – | Clc1ccc(C(c2ccccn2)N2CCC3(CCN(CCOc4ccccc4)CC3)C2)cc1 (stereo not drawn) [Compound 105, 2-((4-chlorophenyl)(pyridin-2-yl)methyl)-8-(2-phenoxyethyl)-2,8-diazaspiro[4.5]decane] | – | – | – | – | – | – | – | – | – | – | –
15 | > 30 | 0.1 to 1 | – | 0.1 to 1 | 0.1 to 1 | m12% | 0.1 to 1 | – | – | FC(F)(F)CN(CC1CCN(CCOc2ccccc2)CC1)C(c1ccc(Cl)cc1)c1ccccn1 (stereo not drawn) [Compound 125, N-((4-chlorophenyl)(pyridin-2-yl)methyl)-2,2,2-trifluoro-N-((1-(2-phenoxyethyl)piperidin-4-yl)methyl)ethanamine] | – | – | – | – | – | – | – | – | – | – | –
16 | < 0.1 | < 0.1 | – | < 0.1 | > 30 | m1% | < 0.1 | – | – | CC1(C(=O)NC(c2ccc(Cl)cc2)c2ccccn2)CCN(CCOc2ccccc2)CC1 (single isomer, unassigned) [Compound 144a, N-((4-chlorophenyl)(pyridin-2-yl)methyl)-4-methyl-1-(2-phenoxyethyl)piperidine-4-carboxamide] | – | – | – | – | – | – | – | – | – | – | –
17 | > 30 | 0.1 to 1 | 8 (≈ 3.6 µg/mL) | – | > 30 | m0% | 0.1 to 1 | – | 1 to 10 | CN(CC1CCN(CCOc2ccccc2)CC1)C(c1ccc(Cl)cc1)c1ccccn1 (single isomer, unassigned) [Compound 79b, 1-(4-chlorophenyl)-N-methyl-N-((1-(2-phenoxyethyl)piperidin-4-yl)methyl)-1-(pyridin-2-yl)methanamine] | – | – | – | – | – | m100% | – | – | – | – | –
